# From PubChem BioAssay (NCI)
#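 Where inhibition never reached the appropriate level, the endpoint shown equals the highest concentration tested. Otherwise, values were interpolated linearly from a five-concentration, 48-hour dose response in 96-well plates. Abbreviation: GI50, concentration required for 50% inhibition of growth. The concentration for full growth arrest is given as TGI.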
# How the values were obtained:
# Experiment in all cases: growth of human tumour cells (NCI), 48 h
# [1] = tested on: OVCAR-8 ovarian
# [2] = tested on: M14 melanoma
# [3] = tested on: NCI-H226 lung
# [4] = tested on: DU-145 prostate
# [5] = tested on: HL-60(TB) leukemia
# [6] = tested on: SK-MEL-28 melanoma
# [7] = tested on: RPMI-8226 leukemia
# [8] = tested on: MDA-MB-231 breast
# [9] = tested on: MDA-MB-435
# [10] = tested on: UO-31 renal
# [11] = tested on: IGROV1 ovarian
# [12] = tested on: CCRF-CEM leukemia
# [13] = tested on: SK-MEL-5 melanoma
# [14] = tested on: HCT-15 colon
# [15] = tested on: NCI/ADR-RES ovarian
# [16] = tested on: A549 NSCLC
# [17] = tested on: MOLT-4 leukemia
# [18] = tested on: SNB-75 CNS
# [19] = tested on: UACC-62 melanoma
# [20] = tested on: OVCAR-4 ovarian
# [21] = tested on: TK-10 renal
# [22] = tested on: T-47D breast
# [23] = tested on: BT-549 breast
# [24] = tested on: ACHN renal
# [25] = tested on: NCI-H23 lung
# [26] = tested on: KM12 colon
# [27] = tested on: K-562 leukemia
# [28] = tested on: SR leukemia
# [29] = tested on: SK-MEL-2 melanoma
# [30] = tested on: MALME-3M melanoma
# [31] = tested on: LOX IMVI melanoma
# [32] = tested on: HT29 colon
# [33] = tested on: OVCAR-5 ovarian
# [34] = tested on: UACC-257 melanoma
# [35] = tested on: HOP-92 NSCLC
# [36] = tested on: OVCAR-3 ovarian
# [37] = tested on: NCI-H522 lung
# [38] = tested on: 786-0 renal
# [39] = tested on: MCF7 breast
# [40] = tested on: SK-OV-3 ovarian
# [41] = tested on: SW-620 colon
# [42] = tested on: SF-539 CNS
# [43] = tested on: HS 578T breast
# [44] = tested on: HCC-2998 colon
# [45] = tested on: U251 CNS
# [46] = tested on: HCT-116 colon
# [47] = tested on: PC-3 prostate
# [48] = tested on: SF-268 CNS
# [49] = tested on: NCI-H460 lung
# [50] = tested on: SF-295 CNS
# [51] = tested on: COLO 205 colon
# [52] = tested on: A498 renal
# [53] = tested on: RXF 393 renal
# [54] = tested on: CAKI-1 renal
# [55] = tested on: HOP-62 NSCLC
# [56] = tested on: SNB-19 CNS
structure (smiles),measurement,setting,value
COc1cccc2c1O/C(=C\c1ncc([N+](=O)[O-])n1C)C2=O,GI50,[1],0.167 µM
same,GI50,[2],0.218 µM
same,TGI,[2],0.719 µM
same,GI50,[3],1.47 µM
same,TGI,[3],4.81 µM
same,GI50,[4],0.266 µM
same,TGI,[4],0.809 µM
same,GI50,[5],0.234 µM
same,TGI,[5],1.35 µM
same,GI50,[6],0.239 µM
same,TGI,[6],0.607 µM
same,GI50,[7],0.949 µM
same,TGI,[7],4.11 µM
same,GI50,[8],0.31 µM
same,TGI,[8],1.57 µM
same,GI50,[9],0.133 µM
same,TGI,[9],0.29 µM
same,GI50,[10],0.173 µM
same,TGI,[10],0.622 µM
same,GI50,[11],0.303 µM
same,TGI,[11],2.46 µM
same,GI50,[12],0.0537 µM
same,TGI,[12],0.384 µM
same,GI50,[13],0.186 µM
same,TGI,[13],0.502 µM
same,GI50,[14],0.128 µM
same,TGI,[14],0.404 µM
same,GI50,[15],0.277 µM
same,TGI,[15],2.9 µM
same,GI50,[16],0.509 µM
same,TGI,[16],3.45 µM
same,GI50,[17],0.0689 µM
same,TGI,[17],1.36 µM
same,GI50,[18],1.39 µM
same,TGI,[18],3.97 µM
same,GI50,[19],0.569 µM
same,TGI,[19],1.67 µM
same,GI50,[20],1.92 µM
same,TGI,[20],6.23 µM
same,GI50,[21],0.87 µM
same,GI50,[22],8.25 µM
same,TGI,[22],52.9 µM
same,GI50,[23],0.413 µM
same,TGI,[23],2.65 µM
same,GI50,[24],0.0826 µM
same,TGI,[24],0.332 µM
same,GI50,[25],0.27 µM
same,TGI,[25],1.31 µM
same,GI50,[26],0.348 µM
same,TGI,[26],1.55 µM
same,GI50,[27],0.422 µM
same,TGI,[27],6.22 µM
same,GI50,[28],< 0.0165 µM
same,TGI,[28],0.165 µM
same,GI50,[29],0.242 µM
same,TGI,[29],0.607 µM
same,GI50,[30],0.224 µM
same,TGI,[30],0.563 µM
same,GI50,[31],0.116 µM
same,TGI,[31],0.414 µM
same,GI50,[32],0.154 µM
same,TGI,[32],0.599 µM
same,GI50,[33],1.7 µM
same,TGI,[33],5.82 µM
same,GI50,[34],0.531 µM
same,TGI,[34],4.99 µM
same,GI50,[35],0.343 µM
same,TGI,[35],1.68 µM
same,GI50,[36],0.236 µM
same,TGI,[36],0.632 µM
same,GI50,[37],0.187 µM
same,TGI,[37],0.474 µM
same,GI50,[38],0.375 µM
same,TGI,[38],3.89 µM
same,GI50,[39],0.467 µM
same,TGI,[39],5.04 µM
same,GI50,[40],0.911 µM
same,TGI,[40],4.21 µM
same,GI50,[41],0.0747 µM
same,TGI,[41],1.7 µM
same,GI50,[42],1.32 µM
same,TGI,[42],3.51 µM
same,GI50,[43],1.04 µM
same,TGI,[43],> 21 µM
same,GI50,[44],1.86 µM
same,TGI,[44],7.57 µM
same,GI50,[45],0.745 µM
same,TGI,[45],3.19 µM
same,GI50,[46],0.0825 µM
same,TGI,[46],0.691 µM
same,GI50,[47],0.662 µM
same,GI50,[48],0.221 µM
same,TGI,[48],0.816 µM
same,GI50,[49],0.203 µM
same,TGI,[49],0.603 µM
same,GI50,[50],1.27 µM
same,TGI,[50],4.49 µM
same,GI50,[51],0.254 µM
same,TGI,[51],1.1 µM
same,GI50,[52],1.39 µM
same,TGI,[52],3.42 µM
same,GI50,[53],0.229 µM
same,TGI,[53],0.648 µM
same,GI50,[54],0.2 µM
same,TGI,[54],0.579 µM
same,GI50,[55],0.716 µM
same,TGI,[55],2.25 µM
same,GI50,[56],1.3 µM
same,TGI,[56],5.75 µM
